# Reference: US20250092383A1, “COMPOUNDS AND METHODS FOR FBXO22-MEDIATED PROTEIN DEGRADATION” (Northwestern University, priority 2023, published 2025)
# Key:
# Assay type in all cases: cell-based
# FKBP12 = FKBP12 (Homo sapiens, UniProt P62942); assay: MS-based global proteomic analysis in A549 parental and FBXO22 knockout cells (FKBP12); set-up: expressed in transfected cells; details: 2 μM, 24 hours
# Method: The bar graph represents quantification of the FLAG-FKBP12/HSP90 protein content. Data are presented as the mean values±s.e.m. […] HEK293T cells expressing HA-FBXO22 were treated with 0.025-15 μM 22-SLF for 8 h. The graph represents quantification of the FLAG-FKBP12/HSP90 protein content. Data are presented as the mean values (n=2 biological independent samples). […] The bar graph represents quantification of the FLAG-FKBP12/HSP90 protein content. KO, knockout; WT, wild type. Data are presented as the mean values (n=2 biological independent samples). […] The bar graph represents quantification of the FLAG-FKBP12/HSP90 protein content. Data are presented as the mean values±s.e.m. […] The result is representative of two independent experiments with similar results. WCL, whole-cell lysate; IP, immunoprecipitate.
# Data is obtained from Gene Expression Profiling Interactive Analysis (GEPIA). […] KDM4A and KDM4B are two reported substrates of FBXO22.
# As an F-box protein, FBXO22 is a pivotal player in the context of tumor progression. FBXO22 has many oncogenic functions, including propelling the ubiquitination and subsequent degradation of a diverse spectrum of substrates, such as histone lysine demethylase 4 subfamily KDM4A/B, methylated p53, p21, PTEN, KLF4, and LKB1. […]
# [1] = target: T1, FKBP12 interactome (SKP1-CUL1-RBX1 E3 complex) (Homo sapiens, UniProt P62942+Q8NEZ5); assay: FKBP12-directed enrichment proteomic analysis; details: 22-SLF (2 μM) and MG132 (5 μM)
# T1 construct: expressed in transfected cells; host or cells: HEK293T (FLAG-FKBP12 and HA-FBXO22 expressed; SKP1, CUL1 and RBX1 are the cells' own)
# T1 sequence (P62942 2-108): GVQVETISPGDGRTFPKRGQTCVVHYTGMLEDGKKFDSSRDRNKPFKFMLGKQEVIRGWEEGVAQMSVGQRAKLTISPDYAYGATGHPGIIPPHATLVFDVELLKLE
# T1 sequence (Q8NEZ5 whole entry): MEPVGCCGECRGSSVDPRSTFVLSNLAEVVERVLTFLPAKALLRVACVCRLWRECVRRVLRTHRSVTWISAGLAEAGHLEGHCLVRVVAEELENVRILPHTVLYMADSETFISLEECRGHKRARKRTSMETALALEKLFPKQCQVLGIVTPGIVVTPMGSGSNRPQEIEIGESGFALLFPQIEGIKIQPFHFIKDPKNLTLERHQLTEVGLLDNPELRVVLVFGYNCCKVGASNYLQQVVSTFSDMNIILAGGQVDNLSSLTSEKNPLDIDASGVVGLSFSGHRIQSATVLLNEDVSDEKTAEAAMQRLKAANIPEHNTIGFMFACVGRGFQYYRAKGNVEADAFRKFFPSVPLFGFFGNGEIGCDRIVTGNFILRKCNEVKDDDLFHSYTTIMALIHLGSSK
# T1 sequence (P63208 whole entry partner): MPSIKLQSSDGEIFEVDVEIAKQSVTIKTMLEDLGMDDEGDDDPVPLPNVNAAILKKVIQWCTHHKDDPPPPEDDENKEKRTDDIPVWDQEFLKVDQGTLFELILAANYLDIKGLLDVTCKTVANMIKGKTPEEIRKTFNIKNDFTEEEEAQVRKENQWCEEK
# From the text: (§1) FIGS. 4A-4C show 22-SLF induces the formation of a ternary complex involving 22-SLF, FKBP12 and FBXO22. […] The bar graph represents quantification of the immunoprecipitated HA-FBXO22 protein content compared to the HA-FBXO22 protein in whole cell lysates (WCL). Data are presented as the mean values (n=2 biological independent samples). […] Data are presented as the mean values (n=2 biological independent samples).
# (§2) To comprehensively assess the impact of 22-SLF on the FKBP12 interactome landscape, an enrichment proteomic approach was employed to identify proteins co-immunoprecipitating with FLAG-FKBP12 from HEK293T cells treated with 22-SLF. […] Furthermore, another enrichment proteomic study was conducted comparing FKBP12 interactome landscape in HEK293T cells expressing FBXO22 wildtype and C227AC228A double mutant. […] Collectively, these findings indicate that 22-SLF effectively drives the formation of a ternary complex involving 22-SLF, FBXO22 and FKBP12 by engaging C227/228 in FBXO22, thereby facilitating the subsequent degradation of FKBP12.
# [2] = target: T2, FKBP12 interactome (SKP1-CUL1-RBX1 E3 complex) (Homo sapiens, UniProt P62942+Q8NEZ5, C227A/C228A); assay: FKBP12-directed enrichment proteomic analysis; details: 22-SLF (2 μM) and MG132 (5 μM)
# T2 construct: expressed in transfected cells; host or cells: HEK293T (FLAG-FKBP12 and HA-FBXO22 expressed; SKP1, CUL1 and RBX1 are the cells' own)
# T2 sequence (P62942 2-108): as the sequence (P62942 2-108) above
# T2 sequence (Q8NEZ5 whole entry C227A/C228A): as the sequence (Q8NEZ5 whole entry) above, with C227A, C228A counted along it
# T2 sequence (P63208 whole entry partner): as the sequence (P63208 whole entry partner) above
# From the text: as §1, §2
# FKBP12 (mouse FBXO22) [3] = assay: FKBP12 degradation in HEK293T cells expressing mouse FBXO22; details: HEK293T cells
# From the text: (§3) FIGS. 3A-3H show FBXO22 C227 and C228 are involved in 22-SLF-mediated degradation of FKBP12. […] Among 5,650 quantified IA-DTB-modified peptides, four cysteines were identified on FBXO22 (C83, C117, C228, and C365). […] Data are presented as the mean values (n=2 biological independent samples for DMSO treatment; n=3 biological independent samples for 22-SLF Treatment). […] The bag graph represents quantification of the FLAG-FKBP12/HSP90 protein content. Data are presented as mean values (n=2 biological independent samples). […] The bar graph represents quantification of the FLAG-FKBP12/HSP90 protein content. Data are presented as the mean values (n=2 biological independent samples).
# (§4) Intriguingly, the peptide sequence containing the two consecutive cysteines (C227 and C228) is identical between human and mouse (FIG. 3f). To explore whether mouse FBXO22 can facilitate 22-SLF-induced FKBP12 degradation and if the conserved cysteines (C226 and C227 in mouse FBXO22) are pivotal, HEK293T cells expressing mouse FBXO22 wildtype, C226A, C227A, and C226AC227A, were generated.
# FKBP12 (mouse FBXO22) [4] = target: T3, FKBP12 (mouse FBXO22) (UniProt P62942+Q78JE5, C226A/C227A); assay: as above; details: HEK293T cells
# T3 construct: expressed in transfected cells; host or cells: HEK293T
# T3 sequence (P62942 2-108): as the sequence (P62942 2-108) above
# T3 sequence (Q78JE5 whole entry C226A/C227A): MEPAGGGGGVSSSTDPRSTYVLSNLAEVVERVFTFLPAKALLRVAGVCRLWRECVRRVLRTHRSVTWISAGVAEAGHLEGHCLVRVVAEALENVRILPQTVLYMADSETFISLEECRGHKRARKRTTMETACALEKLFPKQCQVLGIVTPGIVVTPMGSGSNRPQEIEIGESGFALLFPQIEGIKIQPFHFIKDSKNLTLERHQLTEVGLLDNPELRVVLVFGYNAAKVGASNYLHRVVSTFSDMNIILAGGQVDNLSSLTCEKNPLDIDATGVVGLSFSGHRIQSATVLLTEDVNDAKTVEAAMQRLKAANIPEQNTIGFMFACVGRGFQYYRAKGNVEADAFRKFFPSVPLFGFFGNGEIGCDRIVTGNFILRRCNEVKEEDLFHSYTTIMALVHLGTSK
# From the text: as §3, §4
# FKBP12, sequence (P62942 whole entry): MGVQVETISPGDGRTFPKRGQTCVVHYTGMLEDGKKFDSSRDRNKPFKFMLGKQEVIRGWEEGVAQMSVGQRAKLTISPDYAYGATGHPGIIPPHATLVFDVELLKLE
compound,measurement,setting,value
CCC(C)(C)C(=O)C(=O)N1CCCC[C@H]1C(=O)O[C@H](CCc1ccc(OC)c(OC)c1)c1cccc(OCC(=O)NCCCOCCOCCOCCCN(C(=O)CCl)C(C(=O)NCc2ccccc2)c2nc3ccccc3s2)c1 (stereo partly drawn) [22-SLF],Selectivity of FKBP12 degradation in global proteomics,FKBP12,"selective degradation of endogenous FKBP12 in FBXO22 wildtype, but not knockout context"
same,"FBXO22 complex enrichment, FBXO22 wildtype-expressing cells",[1],enrichment of the FBXO22 complex
same,Proteins co-immunoprecipitating with FLAG-FKBP12,[1]; HEK293T cells,"FBXO22 itself, SKP1, CUL1, and NEDD8, as proteins recruited by 22-SLF"
same,"FBXO22 complex enrichment, FBXO22 C227AC228A-expressing cells",[2],enrichment was absent
same,"FKBP12 degradation, mouse FBXO22 single mutants C226A and C227A",FKBP12 (mouse FBXO22) [3],partially impeded degradation
same,"FKBP12 degradation, mouse FBXO22 double mutant C226AC227A",FKBP12 (mouse FBXO22) [4],fully blocked the degradation
